According to US9782366B2, “Drug for killing acid-fast (red) bacillus” (priority 2013, dated 2017):
Several values for one entry are separate records, joined by “and”; a condition that tells them apart may be missing. Equal entries are not always repeated. Entries after “also recorded” stand apart in the source; their conditions may differ. Structures can show the parent of a compound that is named as a salt.

How the values were obtained:
[1] = Change of urine pH with time after taking basic fuchsine; type: in vivo, human; conditions: for Urine pH value, Average: average of 9 patients, before drug 6; for Patent's urine pH value: individual patient (vegetarian), hydrochloride
Method: Therefore, the infected body, which is weakly acidic, is recovered to become weakly basic and this is beneficial to increasing the body's immunity such that Mycobacterium tuberculosis can be inhibited or removed. Because the integration of lysosomes inside macrophage with phagosome cannot be prevented, the bacteria can be removed. The changes in urine pH after taking basic fuchsine is illustrated in Table 2 and FIG. 1:
Remarks: The urine pH value reached the peak value at 2-3 hours after taking drug, and the peak period can sustain for 3-4 hours, then return to normal at 5-6 hours after taking drug.

[2] = test system: Mycobacterium tuberculosis; assay: Drug Susceptibility Testing on Lowenstein-Jensen medium; type: cell-based
Method: Drug Susceptibility Testing
(II) Culture Method: Lowenstein-Jensen medium (Improved method)
KH2PO4: 2.4 g; MgSO4.7H2O 0.24 g; magnesium citrate: 0.6 g; asparagine: 3.6 g; glycerin: 12 ml; distilled water: 600 ml; potato starch: 30 g; fresh whole egg liquid: 1000 ml; 2% malachite green solution: 20 ml
4. Drug: 2% basic fuchsine aqueous solution: 100 ml
Add water to KH2PO4, MgSO4.7H2O, magnesium citrate, asparagine and glycerin, dissolve through heating in a boiling water bath, then add potato starch and continue heating in water bath for 30 minutes, stir continuously to form a uniform paste. After cooling to about 60° C., add 1000 ml fresh whole egg liquid and 20 ml 2% malachite green solution, mix thoroughly and then filter by double-layered gauze, then dispensed into test tube with screw cap. 7 ml of the prepared solution is added to each test tube, then add the 2% basic fuchsine solution according to a specific proportion into the test tube (see Table 3 for the adding amount), then place the test tube into the 85% steam incubator for 90 minutes, cooling to 60° C. or below and then place the test tube inclinedly into the biological safety cabinet (also called purification station), thereby the culture medium is cooled to solidify and form an incline surface. Put 10^−2/ml living bacilli solution of Mycobacterium tuberculosis to the incline surface of the culture medium. The living bacilli solution for each tube is 0.1 ml. The concentration of bacilli solution in the culture medium is 10^−3 mg/ml. Place in Digital Biochemical Incubator to culture. After culture for 5 weeks, no bacteria growth refers to drug susceptibility, continue bacteria growth refers to drug non-susceptibility (See Table 4 for testing results).

M. tuberculosis = assay: Basic Fuchsine for treatment of Tuberculosis (patients); type: in vivo, human; conditions: for Drug treatment after 1 month (TB status, symptoms): individual TB patient, capsule 500 mg (basic fuchsine:ground rice 3:2), 1-2 capsule/day oral, hydrochloride
Method: Basic Fuchsine for treatment of Tuberculosis
Dosage for patient: Capsule, 500 mg/capsule, where the weight ratio of basic fuchsine to ground rice is 3:2, each patient takes 1˜2 capsule/day.
Method of administration: Every morning, before breakfast, take the capsule, three month as one treatment course, see Table 5 for patients' records, see Table 6 for treatment results.
1. All patients were diagnosis and confirmed by standard TB hospital or TB prevention and treatment center, and all patients encountered disease recurrence after conventional standard drug treatment.
3. Before drug treatment with basic fuchsine drug, all patients have obvious symptoms: body weakness, discomfort, fever, cough, night sweat, ascites, blood spitting, blood vomiting, etc. (skeletal TB patient experience pain, some experience amenorrhea).

Leprosy ulcers = assay: Basic Fuchsine for Treatment of Leprosy (patients); type: in vivo, human; conditions: individual leprosy ulcer patient, treatment method External
blood cells = conditions: human, in vivo, po
Excerpt: After taking basic fuchsine, the basic fuchsine activity over time can be observed through the blood phenomenon at different times.
Healthy individual as normal subject for observation
Patient recovered from the disease who volunteer to testing subject as volunteer subject
Binocular microscope xsp-12G model
Wright-Giemsa stain solution (available in the market)
Phosphate buffer (available in the market)
Obtain peripheral blood smear from normal subject and volunteer subject (normal control blood film, standby use)
Obtain peripheral blood smear from volunteer subject at different time after taking fuchsine (oral fuchsine blood film, standby use)
After the last blood sampling is complete, carrying staining together with the blood film before taking fuchsine orally of volunteer subject and the peripheral blood film of normal subject
V. observe oral fuchsine blood film under microscope with 100× objective lens (oil immersion) and 12.5× eyepiece, real object is viewed under magnification at 1250 times and the results are shown in Table 3.

[3] = Toxicity Test of Basic Fuchsine in guinea pigs; conditions: guinea pigs, 8, 6 and 4 mg/kg body weight/d, once per day, 21 days
Excerpt: Materials: 24 white guinea pigs, purchased from Shenyang Pharmaceutical University, regular feeding; Basic fuchsine, from Tianjin Ju Hua Chemical Company Limited.
Matching and grouping of experimental animals: randomly divided into 4 groups (each group includes 6 counts, equal number of male and female), namely, control, high, medium, low fuchsine dosage group.
Method of administration: For each guinea pig, administered one time per day at a fixed time in the morning, the dosage for high, medium, low fuchsine dosage group are 8 mg/kg body weight/d, 6 mg/kg body weight/d, and 4 mg/kg body weight/d respectively; the drug administration period is 21 days, observe 3˜4 times per day, observe the guinea pig by spirit condition, appetite, gloss level of skin and hairs, physical condition, alertness and ability to escape.

Cc1cc(C(=C2C=CC(=N)C=C2)c2ccc(N)cc2)ccc1N [basic fuchsine, rosaniline hydrochloride]
Time at which urine pH value reached the peak value ([1]; after taking drug): 2-3 hours
Time of return of urine pH to normal ([1]; after taking drug): 5-6 hours
Time the urine pH peak period can sustain ([1]; after taking drug): 3-4 hours
Urine pH value, Average ([1]; After drug 1 h): 6.5
Urine pH value, Average ([1]; After drug 2 h): 7
Urine pH value, Average ([1]; After drug 3 h): 6.5
Urine pH value, Average ([1]; After drug 4 h): 6.5
Urine pH value, Average ([1]; After drug 5 h): 6
Urine pH value, Average ([1]; After drug 6 h): 6
Patent's urine pH value ([1]; After drug 1 h): 6 (2×) and 6.5 (5×) and 7 (2×)
Patent's urine pH value ([1]; After drug 2 h): 6.5 (2×) and 7 (5×) and 7.5 (2×)
Patent's urine pH value ([1]; After drug 3 h): 6 (2×) and 6.5 (5×) and 7 (2×)
Patent's urine pH value ([1]; After drug 4 h): 6 (2×) and 6.5 (5×) and 7 (2×)
Patent's urine pH value ([1]; After drug 5 h): 5.5 (2×) and 6 (5×) and 6.5 (2×)
Patent's urine pH value ([1]; After drug 6 h): 5.5 (2×) and 6 (5×) and 6.5 (2×)
Testing results (bacteria growth) ([2]; Tube 1, 0.7 ml 2% basic fuchsine solution, final dilution factor 500, 5 weeks at 36 C): Grow
Testing results (bacteria growth) ([2]; Tube 2, 0.525 ml 2% basic fuchsine solution, final dilution factor 750, 5 weeks at 36 C): Grow
Testing results (bacteria growth) ([2]; Tube 3, 0.35 ml 2% basic fuchsine solution, final dilution factor 1000, 5 weeks at 36 C): Grow
M. tuberculosis (acid-fast bacilli) in sputum after taking basic fuchsine for one month (M. tuberculosis; TB patients): no M. tuberculosis is found in sputum
Patients' blood test for liver and kidney after taking basic fuchsine (M. tuberculosis; TB patients): normal
TB symptoms after taking basic fuchsine for three months (M. tuberculosis; TB patients): TB symptoms are eliminated
X-ray after taking basic fuchsine for six months (M. tuberculosis; TB patients): recovery are confirmed through X-ray
Adverse reactions / side effect during the course of treatment (M. tuberculosis; all cases): no side effect is observed in all cases
Drug treatment after 1 month (TB status, symptoms) (M. tuberculosis; 1 capsule/day): TB Improved (−); also recorded: Improved TB (−)
Drug treatment after 1 month (TB status, symptoms) (M. tuberculosis; 2 capsule/day): Pain reduced
Symptoms after taking basic fuchsine for one month (M. tuberculosis; majority of TB patients): Symptoms are significantly reduces
Liver or kidney damage (M. tuberculosis; patients taking drug for more than two years): no liver or kidney damages is observed
Recurrence (M. tuberculosis; patients who are recovered): no single occurrence of recurrence
Remarks (outcome) (Leprosy ulcers): Absorbed,
Time remained inside the cell after absorption into blood (blood cells): 2 to 4 h
Observation of spirit condition, appetite, skin and hairs, physical condition, alertness, ability to escape [3]: No changes is observed
